13 molecules from ChEMBL document CHEMBL1909046, “DrugMatrix in vitro pharmacology data” can be followed below.

In one assay the target is Adenosine receptor A2a (Homo sapiens, UniProt P29274). In words: DRUGMATRIX: Adenosine A2A radioligand binding (ligand: […]). The format is cell membranes, Membrane. The following applies: hek293; Not Active = under 50% inhibition at 10 µM.
Assay [1] in a line: DRUGMATRIX: Nicotinic Acetylcholine radioligand binding (ligand: [125I] Epibatidine). The format is cell membranes, Membrane. Particulars: imr-32; Not Active = under 50% inhibition at 10 µM.
The target of a further assay is T1, Endothelin-1 receptor (Homo sapiens, UniProt P25101). Further: in other assays of this panel Not Active means under 50% inhibition at 10 µM.
T1 sequence (P25101 whole entry): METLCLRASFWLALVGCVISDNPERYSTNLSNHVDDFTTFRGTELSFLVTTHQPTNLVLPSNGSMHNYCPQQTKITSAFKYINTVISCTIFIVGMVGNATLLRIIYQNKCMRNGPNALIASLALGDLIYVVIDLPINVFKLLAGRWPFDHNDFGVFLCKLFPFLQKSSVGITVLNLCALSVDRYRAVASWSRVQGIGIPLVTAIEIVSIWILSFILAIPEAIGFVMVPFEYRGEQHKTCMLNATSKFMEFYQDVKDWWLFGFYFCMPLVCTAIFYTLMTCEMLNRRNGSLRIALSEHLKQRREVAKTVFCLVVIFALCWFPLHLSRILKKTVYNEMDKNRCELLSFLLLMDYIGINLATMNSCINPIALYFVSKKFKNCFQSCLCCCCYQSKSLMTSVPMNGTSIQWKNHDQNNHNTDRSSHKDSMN
Type of assay: cell membranes, CHO-K1, Membrane. The following applies: cho-k1.

Assay [2] is described as follows: DRUGMATRIX: beta-Lactamase enzyme inhibition (substrate: Nitrocefin). The arrangement: species or system Bacillus cereus. Particulars: Not Active = under 50% inhibition at 10 µM.
Assay [3] is described as follows: DRUGMATRIX: Serotonin (5-Hydroxytryptamine) 5-HT3 radioligand binding (ligand: [3H] GR-65630). Type of assay: cell membranes, Membrane. Particulars: hek293; Not Active = under 50% inhibition at 10 µM.
Assay [4] concerns the target Matrix metalloproteinase-9 (Homo sapiens, UniProt P14780). In words: biochemical. The format is cell-based.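 Further: inhibition of isolated MMP-9 enzyme activity toward a synthetic peptide substrate, from the DrugMatrix protease screening panel; in other assays of this panel Not Active means under 50% inhibition at 10 µM.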
Assay [5] can be described thus: DRUGMATRIX: Sodium/nucleoside co-transporter radioligand binding (ligand: nitrobenzylthioinosine). The format is cell membranes, Cavia porcellus, Dunkin-Hartley, Cerebral cortex, Membrane. Particulars: Not Active = under 50% inhibition at 10 µM.
For assay [6], the target named is T2, 3-hydroxy-3-methylglutaryl-coenzyme A reductase (Homo sapiens, UniProt P04035).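 Further: enzyme inhibition assay of HMG-CoA reductase using radiolabeled [14C]HMG-CoA as substrate; in other assays of this panel Not Active means under 50% inhibition at 10 µM.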
T2 sequence (P04035 whole entry): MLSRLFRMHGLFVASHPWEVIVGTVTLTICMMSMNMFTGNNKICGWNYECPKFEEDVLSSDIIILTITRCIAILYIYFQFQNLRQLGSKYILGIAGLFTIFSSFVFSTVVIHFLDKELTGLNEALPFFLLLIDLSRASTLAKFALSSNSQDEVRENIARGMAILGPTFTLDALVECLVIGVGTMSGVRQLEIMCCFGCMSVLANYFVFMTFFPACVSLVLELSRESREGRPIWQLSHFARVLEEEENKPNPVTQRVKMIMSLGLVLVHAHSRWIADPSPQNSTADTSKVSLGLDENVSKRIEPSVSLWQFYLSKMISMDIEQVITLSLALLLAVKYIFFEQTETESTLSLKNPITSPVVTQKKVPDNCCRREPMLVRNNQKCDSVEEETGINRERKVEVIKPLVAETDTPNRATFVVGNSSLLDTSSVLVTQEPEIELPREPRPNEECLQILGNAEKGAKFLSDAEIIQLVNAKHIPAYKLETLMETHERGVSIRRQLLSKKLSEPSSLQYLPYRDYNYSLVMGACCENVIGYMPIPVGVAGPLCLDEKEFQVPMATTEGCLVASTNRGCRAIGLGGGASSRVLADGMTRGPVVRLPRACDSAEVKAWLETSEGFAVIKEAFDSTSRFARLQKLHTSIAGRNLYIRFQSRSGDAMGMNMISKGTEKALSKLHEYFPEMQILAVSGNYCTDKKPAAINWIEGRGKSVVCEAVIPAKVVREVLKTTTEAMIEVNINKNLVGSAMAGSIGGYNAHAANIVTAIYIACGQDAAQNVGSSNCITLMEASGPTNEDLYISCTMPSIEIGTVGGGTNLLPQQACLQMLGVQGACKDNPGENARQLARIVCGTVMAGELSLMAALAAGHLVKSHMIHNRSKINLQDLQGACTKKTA
The arrangement: species or system Escherichia coli.

Chain of Adenosine receptor A2a (P29274 whole entry): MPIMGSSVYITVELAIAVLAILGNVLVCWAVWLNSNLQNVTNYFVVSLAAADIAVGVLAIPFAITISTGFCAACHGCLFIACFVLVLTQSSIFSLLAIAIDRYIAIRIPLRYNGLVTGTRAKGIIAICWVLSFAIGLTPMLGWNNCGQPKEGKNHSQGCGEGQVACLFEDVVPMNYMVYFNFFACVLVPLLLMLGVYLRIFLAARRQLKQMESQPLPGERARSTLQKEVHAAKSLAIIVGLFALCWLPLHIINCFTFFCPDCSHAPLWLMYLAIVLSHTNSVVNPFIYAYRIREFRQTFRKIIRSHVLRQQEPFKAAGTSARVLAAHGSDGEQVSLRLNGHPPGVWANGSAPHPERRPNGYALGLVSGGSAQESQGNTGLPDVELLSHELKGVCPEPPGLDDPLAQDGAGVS
Chain of Matrix metalloproteinase-9 (P14780 whole entry): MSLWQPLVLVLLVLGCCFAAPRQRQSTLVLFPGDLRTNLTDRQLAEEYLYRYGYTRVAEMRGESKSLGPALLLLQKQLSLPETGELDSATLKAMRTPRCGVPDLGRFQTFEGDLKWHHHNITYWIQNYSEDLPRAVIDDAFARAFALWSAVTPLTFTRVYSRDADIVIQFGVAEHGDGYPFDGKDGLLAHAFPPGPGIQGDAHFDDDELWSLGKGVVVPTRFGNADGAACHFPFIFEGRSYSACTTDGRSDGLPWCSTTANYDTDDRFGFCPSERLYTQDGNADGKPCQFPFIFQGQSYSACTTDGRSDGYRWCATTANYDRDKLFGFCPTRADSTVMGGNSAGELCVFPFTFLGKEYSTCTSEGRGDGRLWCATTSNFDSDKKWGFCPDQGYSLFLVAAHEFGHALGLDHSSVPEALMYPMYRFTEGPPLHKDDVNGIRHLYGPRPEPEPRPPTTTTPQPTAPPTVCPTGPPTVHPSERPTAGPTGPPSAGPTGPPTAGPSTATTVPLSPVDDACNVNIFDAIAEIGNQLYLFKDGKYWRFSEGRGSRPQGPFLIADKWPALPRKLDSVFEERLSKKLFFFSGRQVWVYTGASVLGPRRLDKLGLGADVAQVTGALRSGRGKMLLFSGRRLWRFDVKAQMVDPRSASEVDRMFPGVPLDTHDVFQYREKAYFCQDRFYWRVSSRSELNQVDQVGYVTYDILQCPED

Turning to `NC(=O)N1c2ccccc2CCc2ccccc21`, the half-maximal inhibitory concentration (IC50) result (on Adenosine receptor A2a; in assay [1]; against Endothelin-1 receptor; in assay [2]; in assay [3]; in assay [4]) was “Not Active” throughout. For the same molecule, the half-inhibitory concentration (IC50) result in assay [5] and in assay [6] was “Not Active” in each case. The Ki result in assay [1], in assay [2], in assay [3] and in assay [5] was “Not Active” in each case.
`Cc1ccc(-c2cc(C(F)(F)F)nn2-c2ccc(S(N)(=O)=O)cc2)cc1` [CELECOXIB]: the IC50 entry (at Adenosine receptor A2a; in assay [1]; against Endothelin-1 receptor; in assay [2]; in assay [3]; in assay [4]) was “Not Active” throughout. Moreover, the IC50 entry in assay [5] and in assay [6] was “Not Active” in each case. Also, the Ki result in assay [1], in assay [2], in assay [3] and in assay [5] was “Not Active” each time.
`Cc1onc(-c2ccccc2Cl)c1C(=O)N[C@@H]1C(=O)N2[C@@H]1SC(C)(C)[C@@H]2C(=O)O` [CLOXACILLIN]: the concentration for half-maximal inhibition (IC50) result (at Adenosine receptor A2a; in assay [1]; against Endothelin-1 receptor; in assay [2]; in assay [3]; in assay [4]) was “Not Active” each time. Besides, the IC50 result in assay [5] and in assay [6] was “Not Active” each time. Also, the Ki result in assay [1], in assay [2], in assay [3] and in assay [5] was “Not Active” throughout.
As to `CCCN1C[C@H](CSC)C[C@@H]2c3cccc4[nH]cc(c34)C[C@H]21` [PERGOLIDE], the 50% inhibitory concentration (IC50) result (at Adenosine receptor A2a; in assay [1]; at Endothelin-1 receptor; in assay [2]; in assay [3]; in assay [4]) was “Not Active” in each case. For the same molecule, the IC50 entry in assay [5] and in assay [6] was “Not Active” in each case. For the same molecule, the Ki entry in assay [1], in assay [2], in assay [3] and in assay [5] was “Not Active” in each case.
On to LIPOPOLYSACCHARIDE E. COLI O55:B5, for which the half-inhibitory concentration (IC50) entry at Adenosine receptor A2a is “Not Active”; in assay [1], “Not Active”; on Endothelin-1 receptor it was “Not Active”; in assay [2] (read-out: IC50), 38.7 nM; in assay [3], “Not Active”; in assay [4] it was “Not Active”. Also, the IC50 entry in assay [5] and in assay [6] was “Not Active” throughout. The Ki result (at Adenosine receptor A2a; in assay [1]; on Endothelin-1 receptor; in assay [3]; in assay [4]; in assay [5]) was “Not Active” in each case. For the same molecule, in assay [6], the Ki entry is recorded as “Not Active”.
In the case of `CC(O)CO` (centres undefined) [PROPYLENE GLYCOL], the half-inhibitory concentration (IC50) result (at Adenosine receptor A2a; in assay [1]; against Endothelin-1 receptor; in assay [2]; in assay [3]; in assay [4]) was “Not Active” each time. The half-maximal inhibitory concentration (IC50) result in assay [5] and in assay [6] was “Not Active” in each case. The Ki entry in assay [1], in assay [2], in assay [3] and in assay [5] was “Not Active” throughout.
Consider `CC(C)C(Br)C(=O)NC(N)=O` (centres undefined) [BROMISOVALUM], for which the IC50 entry (on Adenosine receptor A2a; in assay [1]; against Endothelin-1 receptor; in assay [2]; in assay [3]; in assay [4]) was “Not Active” each time. Besides, the IC50 entry in assay [5] and in assay [6] was “Not Active” in each case. Besides, the Ki entry in assay [1], in assay [2], in assay [3] and in assay [5] was “Not Active” in each case.
As for `CCC(C)n1ncn(-c2ccc(N3CCN(c4ccc(OCC5COC(Cn6cncn6)(c6ccc(Cl)cc6Cl)O5)cc4)CC3)cc2)c1=O` (centres undefined) [ITRACONAZOLE], the IC50 entry (at Adenosine receptor A2a; in assay [1]; against Endothelin-1 receptor; in assay [2]; in assay [3]; in assay [4]) was “Not Active” each time. The half-inhibitory concentration (IC50) entry in assay [5] and in assay [6] was “Not Active” each time. Besides, the Ki entry in assay [1], in assay [2], in assay [3] and in assay [5] was “Not Active” in each case.
For `Nc1c(Br)cc(Br)cc1CN[C@H]1CC[C@H](O)CC1` [AMBROXOL], the IC50 result (on Adenosine receptor A2a; in assay [1]; against Endothelin-1 receptor; in assay [2]; in assay [3]; in assay [4]) was “Not Active” each time. Moreover, the IC50 entry in assay [5] and in assay [6] was “Not Active” in each case. In addition, the Ki entry in assay [1], in assay [2], in assay [3] and in assay [5] was “Not Active” each time.
Consider `CC(C)(C)NCC(O)c1cc(Cl)c(N)c(Cl)c1` (centres undefined) [CLENBUTEROL], for which the IC50 entry (on Adenosine receptor A2a; in assay [1]; against Endothelin-1 receptor; in assay [2]; in assay [3]; in assay [4]) was “Not Active” each time. Besides, the IC50 entry in assay [5] and in assay [6] was “Not Active” each time. For the same molecule, the Ki result in assay [1], in assay [2], in assay [3] and in assay [5] was “Not Active” throughout.
Regarding `C[C@](N)(Cc1ccc(O)c(O)c1)C(=O)O` [METHYLDOPA], the IC50 entry (at Adenosine receptor A2a; in assay [1]; against Endothelin-1 receptor; in assay [2]; in assay [3]; in assay [4]) was “Not Active” in each case. Also, the IC50 result in assay [5] and in assay [6] was “Not Active” in each case. Further, the Ki result in assay [1], in assay [2], in assay [3] and in assay [5] was “Not Active” throughout.
With `Cc1ccccc1N1C(=O)c2cc(S(N)(=O)=O)c(Cl)cc2NC1C` (centres undefined) [METOLAZONE], the IC50 entry (at Adenosine receptor A2a; in assay [1]; against Endothelin-1 receptor; in assay [2]; in assay [3]; in assay [4]) was “Not Active” each time. The IC50 result in assay [5] and in assay [6] was “Not Active” in each case. Also, the Ki entry in assay [1], in assay [2], in assay [3] and in assay [5] was “Not Active” throughout.
Consider `Cc1ccc(N(CC2=NCCN2)c2cccc(O)c2)cc1` [PHENTOLAMINE], for which the concentration for half-maximal inhibition (IC50) result (on Adenosine receptor A2a; in assay [1]; against Endothelin-1 receptor; in assay [2]; in assay [3]; in assay [4]) was “Not Active” each time. In addition, the concentration for half-maximal inhibition (IC50) result in assay [5] and in assay [6] was “Not Active” in each case. For the same molecule, the Ki entry in assay [1], in assay [2], in assay [3] and in assay [5] was “Not Active” each time.

By IC50 is commonly meant the concentration at which inhibition is half-maximal.
